The test system of one series is cells. Description: cell toxicity of orthovanadate and H2 O2. The note with it: 1 mM H2 O2, 24 hours. It counts as cell-based. On the procedure:
Orthovanadate was thought in view of the investigations described in Examples 1-3, to react with H2 O2 to form hydroxyl radicals which are extremely toxic. If the orthovanadate induced formation of hydroxyl radicals is responsible for cell toxicity, then adding exogenous H2 O2 should enhance the effects of orthovanadate. Accordingly, cells were incubated in media alone or containing 1 mM H2 O2 or 10 μM orthovanadate or both for 24 hours. The cells were harvested and cell viability determined.

The next series relates to fos. Description: fos / c-fos mRNA expression in chondrocytes (Northern blot). It counts as cell-based, bovine. The note with it: stimulus alone; H2 O2 30, 60 and 90 minutes; IL-1, PMA or AA (3 μM) 1 hour. The method, then:
The cytokine interleukin 1 (IL 1) has been used to identify the intermediate second messengers which regulate the expression of fos and jun.
In order to elucidate this possibility, the effect of DPI on fos and jun mRNA levels induced by IL 1 was investigated. RNA from chondrocytes treated with IL 1 in the presence and absence of DPI were analyzed by Northern blot analysis using either fos or collagenase cDNA probes.
Since superoxides are rapidly converted to hydrogen peroxide in the cell by superoxide dismutase, whether hydrogen peroxide could mimic the effect of IL 1 in the induction of fos expression was investigated. RNA was extracted from chondrocytes (Kandel et al. supra) treated with H2 O2 for 30, 60 and 90 minutes and examined by Northern blot analysis using a fos cDNA probe.
Bovine articular chondrocytes were isolated and plated as previously described (Kandel R. A. et al. Biochim. Biophys. Acta. 1053, 130-134, 1990). […] The amount of ^3 H-AA liberated into the supernatant was determined. To measure PGE2 production, chondrocytes were incubated for 6 hours in Ham's F12 medium, either alone or with IL 1 or PMA. […] In order to examine the expression of c-fos and c-jun, chondrocytes were incubated for 1 hour in the presence of IL-1, PMA or AA (3 μM). Chondrocytes were washed in PBS and the total RNA extracted as previously described (Cruz. et al, 1991, Biochem. J. 277, 327-330). RNA samples were run on formaldehyde agarose gels and transferred to nylon membrane for northern analysis using cDNA probes for c-fos and c-jun.
The RNA was extracted and examined by Northern blot analysis using cDNA probes for c-fos and collagenase.

For the next series, the system named is K562. Description: MTT cytotoxicity assay, K562. Particulars: K562, 72 hours. It counts as cell-based, human. The method, then: (§1) The relative cytotoxicity of various compounds on tumor cell lines was investigated as follows. Cytotoxicity was measured by the MTT microculture tetrazolium colorimetric assay for all cell lines. The relative cytotoxicity of Na3 VO4 and VOSO4 was investigated using the following tumor cell lines: P388(WT) murine leukemia, P388 (ADR) murine leukemia, Lewis murine lung, MCF7 (WT) human breast, […] human lung, K562 human erythroleukemia, A431 human epidermal, LS180 human colon and SK-OV-3 human ovarian. The relative cytotoxicity of doxorubicin, Na3 VO4 and VOSO4 was investigated using the following tumor cell lines: P388(WT) murine leukemia, P388 (ADR) murine leukemia, MCF7(WT) human breast and MCF7 (ADR) human breast. The relative cytotoxicity of BMOV, BEOV and naglivan was investigated using the following tumor cell lines: P388(WT) murine leukemia, P388 (ADR) murine leukemia, Lewis murine lung, H460 human lung, K562 human erythroleukemia, and SK-OV-3 human ovarian.
The cells were plated (number of cells/well was different from cell line to cell depending on the dividing rate) in a 96-well microculture plate 24 hours prior to the delivery of the vanadium compounds. […] A blank column (without cells) and a control column (with cells without vanadium) were left. The cells were incubated for 72 hours continuously. An MTT solution was added to each well after this incubation period and the cells were incubated for 4 more hours for the completion of the dyeing process. The medium was removed find DMSO was added to each well. The absorbance of each well was read with a Titertek Multiskan (310C) spectrophotometer at 570 nm. The percentage of the absorbance of each vanadium concentration relative to the control calculated and the value of the 50% growth inhibition concentration (IC50) was obtained from the % control versus concentration plot. Each assay was repeated three times and the reported IC50 values were the mean of these three runs.
For orientation: Tetrazolium dyes change colour on reduction, which living cells bring about.

In another series the test system is P388 (WT). Put plainly: MTT cytotoxicity assay, P388 (WT). The note with it: P388 (WT), 72 hours; read-out: IC50 Value. It is filed as cell-based, murine. The method, then: as §1
(§2) The cells were plated (number of cells/well was different from cell line to cell depending on the dividing rate) in a 96-well microculture plate 24 hours prior to the delivery of the vanadium compounds. Serial concentrations of solutions of the test compounds (0.05-100 μM) were delivered to the corresponding wells. A blank column (without cells) and a control column (with cells without vanadium) were left. The cells were incubated for 72 hours continuously. An MTT solution was added to each well after this incubation period and the cells were incubated for 4 more hours for the completion of the dyeing process. The medium was removed find DMSO was added to each well. The absorbance of each well was read with a Titertek Multiskan (310C) spectrophotometer at 570 nm. The percentage of the absorbance of each vanadium concentration relative to the control calculated and the value of the 50% growth inhibition concentration (IC50) was obtained from the % control versus concentration plot. Each assay was repeated three times and the reported IC50 values were the mean of these three runs.

A further series deals with MDAY-D2 cells. Put plainly: viability of MDAY-D2 cells. It counts as cell-based, mouse. The note with it: 0-50 μM, 48 hours, three forms compared. On the procedure:
Fos and jun activity are also required for cellular proliferation in many tumor cell lines. Accordingly, the effect of orthovanadate on adherent cells and cell suspensions were examined. MDAY-D2 (a mouse lymphoid cell line grown in suspension) and HTB14 cells (an adherent human primary astrocytoma cell line) were incubated in media containing 0-50 μM orthovanadate for 48 hours. The cells were harvested and the number of viable cells determined.
Three different forms of vanadyl compounds were examined for their effect on viability of cancer cell lines. MDAY-D2 cells were incubated in media containing 0-50 μM orthovanadate, vanadyl sulphate, or vanadyl hydroperoxide for 48 hours. The cells were harvested and the number of viable cells determined. […] Although there were slight differences in sensitivity, the overall cell death was similar.

The next series deals with Lewis lung. Put plainly: MTT cytotoxicity assay, Lewis lung. It is filed as cell-based, murine. The note with it: 72 hours. On the procedure: as §1, §2
For the next series, the system named is MCF7 (WT). Description: MTT cytotoxicity assay, MCF7 (WT). It is filed as cell-based, human. Particulars: MCF7 (WT), 72 hours; read-out: IC50 Value. The method, then:
as §1, §2

A further series deals with carcinogenesis. Particulars: dietary; cited from earlier work.
The test system of the next series is A431. Put plainly: MTT cytotoxicity assay, A431. It counts as cell-based, human. The note with it: A431, 72 hours. On the procedure: as §1
(§3) The cells were plated (number of cells/well was different from cell line to cell depending on the dividing rate) in a 96-well microculture plate 24 hours prior to the delivery of the vanadium compounds. Serial concentrations of solutions of the test compounds (0.05-100 μM) were delivered to the corresponding wells. […] The absorbance of each well was read with a Titertek Multiskan (310C) spectrophotometer at 570 nm. […]

In another series the test system is P388 (ADR). Put plainly: MTT cytotoxicity assay, P388 (ADR). It is filed as cell-based, murine. Particulars: P388 (ADR), 72 hours; read-out: IC50 Value. On the procedure:
as §1, §2

Series [1] relates to metastases of MDAY-D2 cells. Put plainly: liver metastases of MDAY-D2 cells (histology). It counts as in vivo, mice. Particulars: 500 μg/day; preliminary results. From the text:
(§4) In order to examine the ability of vanadyl compounds to reduce tumor formation, growth and metastases, a specific animal model which allows investigation of all of these processes in the same animal was chosen. This model involves the injection of a metastatic haematopoietic cell line, MDAY-D2, into mice subcutaneously. These cells form a tumor at the site of injection and its size can be easily determined. In addition, these cells metastasize to the liver and metastases can be detected histologically after day 17 to 19. This model provides a very sensitive and reproducible approach to investigate the effect of vanadyl compounds on tumor growth and metastases.
The metastatic liver was obtained from an animal 24 days following the administration MDAY-D2 cells. The nodules are quite numerous and large.
Livers were removed from animals treated as described above and prepared for histological examination. FIG. 16 compares liver sections from untreated (C), orthovanadate (VO)(500 μg/day) and vanadyl sulphate (VS)(500 μg/day) treated animals. Nodules are identified with an arrow.

Another series relates to synoviocytes. Description: synoviocyte proliferation, dye exclusion (Example 24). It counts as cell-based. On the procedure: The effect of vanadium compounds on synoviocyte proliferation was investigated as follows. Synoviocytes were plated on six well plates and treated with orthovanadate or vanadyl sulphate and incubated for 24 hours. The cells were removed and the number of viable cells determined by the dye exclusion method.

A further series relates to H460. Put plainly: MTT cytotoxicity assay, H460. It is filed as cell-based, human. Particulars: H460, 72 hours. On the procedure:
as §1, §2

Another series has as its system LS180. Put plainly: MTT cytotoxicity assay, LS180. It counts as cell-based, human. Particulars: LS180, 72 hours. The method, then:
as §1, §3

The test system of a further series is MDAY-D2 tumor. Description: MDAY-D2 tumor growth in vivo, orthovanadate, vanadyl sulphate, vanadyl hydroperoxide (Example 6B). Details: species or system mice.
Description: as §4
In a separate experiment using the same animal model, the effect of orthovanadate, vanadyl sulphate and vanadyl hydroperoxide administration on tumor growth in vivo was examined. On Day 1, 20 mice were injected with 2×10^5 MDAY-D2 cell subcutaneously. The mice were divided into four groups of five mice. At day 5, the animals were injected subcutaneously with 50 μl of water alone or containing 10 mg/ml of orthovanadate, 10 mg/ml of vanadyl sulphate, or 10 mg/ml of vanadyl hydroperoxide. This treatment was continued daily for 16 days. At day 21, the mice were sacrificed and the tumors dissected and weighed.

In another series the test system is SK-OV-3. Description: MTT cytotoxicity assay, SK-OV-3. It is filed as cell-based, human. The note with it: SK-OV-3, 72 hours. On the procedure: as §1, §2
A further series relates to MCF7 (ADR). Description: MTT cytotoxicity assay, MCF7 (ADR). It counts as cell-based, human. The note with it: MCF7 (ADR), 72 hours; read-out: IC50 Value. On the procedure: as §1, §2

In general, IC50 refers to the concentration at which inhibition is half-maximal.

Structures are written as SMILES. Bounds are passed on as bounds.

Consider `OO` [H2 O2, hydrogen peroxide], for which the “effect on cell toxicity, H2 O2 alone” value with cells is reported as “small effect”. For the same compound, the “stimulation of fos / c-fos expression” value in the series on fos is recorded as “stimulates”.

As to `O=S(=O)([O-])[O-].[O]=[V+2]` [vanadyl sulphate], the IC50 in the series with K562 was above 100 µM; in the series on P388 (WT), 16.1 µM; in the series with Lewis lung, 27.3 µM; with MCF7 (WT), 10.5 µM; in the series on A431, 29.1 µM; in the series with P388 (ADR) it was 29.8 µM. The IC50 in the series with H460 came to 9.3 µM; in the series on LS180, 31.9 µM; in the series on SK-OV-3, 1.9 µM; in the series with MCF7 (ADR), 31.3 µM. Moreover, the “killing of MDAY-D2 cells” value with MDAY-D2 cells is on record as “equally effective”. In addition, in the series with carcinogenesis, the “chemically induced mammary carcinogenesis in rats” value is “inhibit”. For the same compound, in series [1], the metastases in liver result is recorded as “did not have detectable levels of metastases”. Moreover, the cytotoxicity to synoviocytes result in the series on synoviocytes is recorded as “cytotoxic to the cells”. Besides, the Number of cells with synoviocytes (25 μM, 24 hours (control 2.6)) was 0.2 10^-5. Also, in the series on synoviocytes (24 hours), the synoviocyte proliferation entry was “inhibited synoviocyte proliferation”. Further, in the series on MDAY-D2 tumor (groups of five, 10 mg/ml, 50 μl daily s.c.), the animal deaths entry is given as “One animal died”. For the same compound, the “efficacy in reducing tumor growth” value with MDAY-D2 tumor (mouse, in vivo) is given as “less effective”.

These data come from US5871779A, “Treatment of arthropathies with vanadate compounds or analogues thereof” (Mount Sinai Hospital Corporation, priority 1996, dated 1999).
